Measured values from patent publication US7074789B2, “Kinase inhibitors” (Amgen Inc., priority 1999, dated 2006).

Assays:
Type in all cases: biochemical
[1] = biological target: T1, Itk (Homo sapiens, UniProt Q08881); assay: Kinase inhibition assay (33P transfer), Itk; conditions: read-out: Itk-1
T1 construct: Kinases are expressed as either kinase domains or full length constructs; made in house
T1 sequence (Q08881 1-620): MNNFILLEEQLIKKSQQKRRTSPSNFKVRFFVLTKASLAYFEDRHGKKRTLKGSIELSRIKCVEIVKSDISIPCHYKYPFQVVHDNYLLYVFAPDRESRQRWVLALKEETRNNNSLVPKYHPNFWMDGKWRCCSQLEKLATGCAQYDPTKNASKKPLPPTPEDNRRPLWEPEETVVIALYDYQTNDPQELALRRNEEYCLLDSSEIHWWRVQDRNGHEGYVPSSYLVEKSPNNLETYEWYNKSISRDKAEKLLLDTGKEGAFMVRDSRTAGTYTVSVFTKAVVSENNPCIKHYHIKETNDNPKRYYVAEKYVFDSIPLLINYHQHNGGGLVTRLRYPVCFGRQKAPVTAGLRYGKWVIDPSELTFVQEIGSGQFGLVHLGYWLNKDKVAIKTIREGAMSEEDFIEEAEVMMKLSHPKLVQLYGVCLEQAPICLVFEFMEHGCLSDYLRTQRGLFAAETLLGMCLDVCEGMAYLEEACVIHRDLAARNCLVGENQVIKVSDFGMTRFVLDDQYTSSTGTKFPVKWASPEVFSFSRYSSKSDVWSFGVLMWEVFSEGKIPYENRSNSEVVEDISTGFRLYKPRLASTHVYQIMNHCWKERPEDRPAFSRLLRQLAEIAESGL
Summary of the method: (§1)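 Read-out: scintillation counts of 33P moved from ATP onto synthetic peptide polymer coated on the well surface, after washing with 0.5% phosphoric acid. Enzymes were tagged (GST or polyHistidine) and came from bacterial or insect-cell expression. IC50 marks 50% loss of incorporated label.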

[2] = biological target: T2, AKT (Homo sapiens, UniProt Q9Y243); assay: Kinase inhibition assay (33P transfer), AKT; conditions: Table 2, kinase inhibition class; read-out: AKT3-1
T2 construct: Kinases are expressed as either kinase domains or full length constructs; made in house
T2 sequence (Q9Y243 whole entry, the tested form may be a part): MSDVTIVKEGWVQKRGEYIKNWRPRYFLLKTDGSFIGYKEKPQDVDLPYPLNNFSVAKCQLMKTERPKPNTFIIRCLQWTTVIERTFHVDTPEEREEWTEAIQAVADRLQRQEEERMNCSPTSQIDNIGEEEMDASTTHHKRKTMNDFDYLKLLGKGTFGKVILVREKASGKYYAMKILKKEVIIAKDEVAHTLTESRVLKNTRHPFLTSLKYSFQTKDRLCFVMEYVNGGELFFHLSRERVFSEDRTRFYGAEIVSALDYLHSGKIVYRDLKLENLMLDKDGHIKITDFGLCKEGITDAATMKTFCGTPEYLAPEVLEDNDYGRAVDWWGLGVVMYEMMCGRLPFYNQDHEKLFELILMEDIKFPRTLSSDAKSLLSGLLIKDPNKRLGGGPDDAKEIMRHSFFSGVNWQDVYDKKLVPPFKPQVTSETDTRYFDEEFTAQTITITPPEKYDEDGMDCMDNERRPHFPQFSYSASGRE
Summary of the method: (§2)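 Radiometric readout: 33P incorporated into surface-bound poly(Glu,Tyr) 4:1 or poly(Arg,Ser) 3:1 is counted by liquid scintillation after a 0.5% phosphoric acid wash. Enzymes were GST or polyHis fusions (kinase domain or full length) from E. coli or High Five insect cells.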

[3] = biological target: T3, IGFR-1 (Homo sapiens, UniProt P08069); assay: Kinase inhibition assay, IGFR-1 (Table 2); conditions: Table 2, kinase inhibition class
T3 construct: Kinases are expressed as either kinase domains or full length constructs; made in house

[4] = biological target: T4, EGFR (Homo sapiens, UniProt P00533); assay: Kinase inhibition assay (33P transfer), EGFR; conditions: Table 2, kinase inhibition class; read-out: EGFR-1
T4 construct: Kinases are expressed as either kinase domains or full length constructs; made in house
T4 sequence (P00533 25-1210, species assumed): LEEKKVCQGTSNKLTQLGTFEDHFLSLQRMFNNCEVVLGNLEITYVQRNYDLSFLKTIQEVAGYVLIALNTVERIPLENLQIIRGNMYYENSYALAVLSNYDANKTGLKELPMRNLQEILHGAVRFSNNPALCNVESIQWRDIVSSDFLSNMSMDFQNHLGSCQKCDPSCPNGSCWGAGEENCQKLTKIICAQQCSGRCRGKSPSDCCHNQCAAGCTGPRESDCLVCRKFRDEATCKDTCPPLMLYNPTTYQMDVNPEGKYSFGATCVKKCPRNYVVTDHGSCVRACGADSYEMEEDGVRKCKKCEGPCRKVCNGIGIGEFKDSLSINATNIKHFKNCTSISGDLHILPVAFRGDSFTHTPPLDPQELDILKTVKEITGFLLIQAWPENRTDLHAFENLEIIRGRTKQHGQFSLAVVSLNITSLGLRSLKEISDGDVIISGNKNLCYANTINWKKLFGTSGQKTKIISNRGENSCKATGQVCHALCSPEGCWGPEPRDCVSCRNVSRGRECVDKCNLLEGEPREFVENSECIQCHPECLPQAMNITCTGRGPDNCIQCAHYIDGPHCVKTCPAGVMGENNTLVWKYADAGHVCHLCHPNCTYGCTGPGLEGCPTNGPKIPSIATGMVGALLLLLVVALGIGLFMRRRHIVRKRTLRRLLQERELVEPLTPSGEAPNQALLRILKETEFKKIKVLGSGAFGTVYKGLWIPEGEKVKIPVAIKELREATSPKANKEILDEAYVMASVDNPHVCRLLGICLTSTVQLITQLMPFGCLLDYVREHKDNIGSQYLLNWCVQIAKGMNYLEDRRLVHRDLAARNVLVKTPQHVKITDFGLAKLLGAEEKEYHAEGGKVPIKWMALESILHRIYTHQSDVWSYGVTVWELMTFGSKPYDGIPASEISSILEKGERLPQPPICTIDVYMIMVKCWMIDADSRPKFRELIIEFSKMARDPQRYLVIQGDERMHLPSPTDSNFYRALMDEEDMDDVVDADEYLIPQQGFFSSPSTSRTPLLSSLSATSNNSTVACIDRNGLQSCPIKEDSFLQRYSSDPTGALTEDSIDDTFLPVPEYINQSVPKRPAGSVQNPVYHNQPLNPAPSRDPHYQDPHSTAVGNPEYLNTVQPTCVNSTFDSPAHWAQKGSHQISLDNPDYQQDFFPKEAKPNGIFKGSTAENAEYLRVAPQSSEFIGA
Summary of the method: as §1

[5] = biological target: T5, ErbB2 (Homo sapiens, UniProt P04626); assay: Kinase inhibition assay (33P transfer), ErbB2; conditions: read-out: ErbB2-2
T5 construct: Kinases are expressed as either kinase domains or full length constructs; made in house
T5 sequence (P04626 23-1255, species assumed): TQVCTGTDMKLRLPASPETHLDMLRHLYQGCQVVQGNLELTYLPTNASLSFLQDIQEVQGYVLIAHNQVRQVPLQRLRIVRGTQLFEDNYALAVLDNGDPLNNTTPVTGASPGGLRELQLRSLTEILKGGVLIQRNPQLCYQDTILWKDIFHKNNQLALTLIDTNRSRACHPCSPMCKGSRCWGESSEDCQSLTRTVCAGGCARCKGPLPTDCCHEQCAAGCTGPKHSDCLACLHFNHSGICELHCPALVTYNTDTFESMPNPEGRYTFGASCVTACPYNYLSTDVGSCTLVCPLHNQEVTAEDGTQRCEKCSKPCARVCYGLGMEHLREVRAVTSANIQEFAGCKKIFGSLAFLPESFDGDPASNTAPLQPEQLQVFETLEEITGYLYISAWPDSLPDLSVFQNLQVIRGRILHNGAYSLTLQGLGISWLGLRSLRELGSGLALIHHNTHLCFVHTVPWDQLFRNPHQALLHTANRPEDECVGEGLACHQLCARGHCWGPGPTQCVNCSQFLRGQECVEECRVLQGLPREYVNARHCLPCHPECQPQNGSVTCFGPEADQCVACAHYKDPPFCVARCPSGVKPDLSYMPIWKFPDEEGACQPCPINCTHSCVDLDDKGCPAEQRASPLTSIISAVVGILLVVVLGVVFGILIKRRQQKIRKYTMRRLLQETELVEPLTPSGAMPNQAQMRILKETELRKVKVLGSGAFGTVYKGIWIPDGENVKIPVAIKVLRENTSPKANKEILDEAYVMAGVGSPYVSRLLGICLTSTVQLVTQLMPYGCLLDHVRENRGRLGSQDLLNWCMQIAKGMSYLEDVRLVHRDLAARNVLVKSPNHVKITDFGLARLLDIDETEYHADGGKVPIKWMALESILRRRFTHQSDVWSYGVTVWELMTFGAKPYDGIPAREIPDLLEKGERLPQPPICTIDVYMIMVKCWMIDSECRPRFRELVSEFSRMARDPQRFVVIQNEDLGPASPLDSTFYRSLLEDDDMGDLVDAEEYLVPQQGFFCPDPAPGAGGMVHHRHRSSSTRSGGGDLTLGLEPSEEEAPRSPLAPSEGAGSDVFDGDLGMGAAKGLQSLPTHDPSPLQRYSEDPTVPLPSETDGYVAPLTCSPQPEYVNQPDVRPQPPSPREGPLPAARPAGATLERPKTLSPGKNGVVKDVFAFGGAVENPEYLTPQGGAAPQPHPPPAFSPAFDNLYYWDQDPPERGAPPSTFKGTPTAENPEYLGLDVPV
Description: The inhibitor compounds described herein are screened in the following manner. Kinases suitable for use in the following protocol to determine kinase activity of the compounds described herein include, -but are not limited to: Lck, Lyn, Src, Fyn, Syk, Zap-70, Itk, Tec, Btk, EGFR, ErbB2, Kdr, Flt-1, Flt-3, Tek, c-Met, InsR, and AKT.
Kinases are expressed as either kinase domains or full length constructs fused to glutathione S-transferase (GST) or polyHistidine tagged fusion proteins in either E. colior Baculovirus-High Five expression systems. They are purified to near homogeneity by affinity chromatography essentially as previously described (Lehr et al., 1996; Gish et al., 1995). In some instances, kinases are co-expressed or mixed with purified or partially purified regulatory polypeptides prior to measurement of activity.
Kinase activity and inhibition are measured essentially by established protocols (Braunwalder et al., 1996). Briefly, The transfer of ^33PO4 from ATP to the synthetic substrates poly(Glu, Tyr) 4:1 or poly(Arg, Ser) 3:1 attached to the bioactive surface of microtiter plates serves as the basis to evaluate enzyme activity. After an incubation period, the amount of phosphate transferred is measured by first washing the plate with 0.5% phosphoric acid, adding liquid scintillant, and then counting in a liquid scintillation detector. The IC50 is determined by the concentration of compound that causes a 50% reduction in the amount of […] incorporated onto the substrate bound to the plate.

[6] = biological target: T6, PDGFRB (Homo sapiens, UniProt P09619); assay: Kinase inhibition assay (33P transfer), PDGFRB; conditions: read-out: PDGFRB-1
T6 construct: Kinases are expressed as either kinase domains or full length constructs; made in house

[7] = biological target: T7, c-Met (Homo sapiens, UniProt P08581); assay: Kinase inhibition assay (33P transfer), c-Met; conditions: Table 2, kinase inhibition class; read-out: Met-1
T7 construct: Kinases are expressed as either kinase domains or full length constructs; made in house
Summary of the method: as §1

[8] = biological target: T8, Lck (Homo sapiens, UniProt P06239); assay: Kinase inhibition assay (33P transfer), Lck; conditions: read-out: Lck-1
T8 construct: Kinases are expressed as either kinase domains or full length constructs; made in house
T8 sequence (P06239 whole entry, species assumed, the tested form may be a part): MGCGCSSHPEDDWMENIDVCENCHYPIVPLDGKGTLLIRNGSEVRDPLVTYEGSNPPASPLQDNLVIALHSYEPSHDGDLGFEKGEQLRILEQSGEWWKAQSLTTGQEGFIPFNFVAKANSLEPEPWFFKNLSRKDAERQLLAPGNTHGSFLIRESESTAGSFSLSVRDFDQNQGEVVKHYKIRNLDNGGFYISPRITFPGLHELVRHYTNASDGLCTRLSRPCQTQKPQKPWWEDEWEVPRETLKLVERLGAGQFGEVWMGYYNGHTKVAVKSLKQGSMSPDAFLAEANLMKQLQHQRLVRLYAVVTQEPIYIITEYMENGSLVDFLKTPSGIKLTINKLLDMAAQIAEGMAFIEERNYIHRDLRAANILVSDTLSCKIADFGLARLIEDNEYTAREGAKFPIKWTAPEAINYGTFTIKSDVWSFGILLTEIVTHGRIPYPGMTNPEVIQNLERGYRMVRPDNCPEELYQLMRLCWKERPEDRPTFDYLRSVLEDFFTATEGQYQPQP
Summary of the method: as §2

[9] = biological target: T9, Zap-70 (Homo sapiens, UniProt P43403); assay: Kinase inhibition assay (33P transfer), Zap-70; conditions: read-out: Zap-1
T9 construct: Kinases are expressed as either kinase domains or full length constructs; made in house
T9 sequence (P43403 1-619): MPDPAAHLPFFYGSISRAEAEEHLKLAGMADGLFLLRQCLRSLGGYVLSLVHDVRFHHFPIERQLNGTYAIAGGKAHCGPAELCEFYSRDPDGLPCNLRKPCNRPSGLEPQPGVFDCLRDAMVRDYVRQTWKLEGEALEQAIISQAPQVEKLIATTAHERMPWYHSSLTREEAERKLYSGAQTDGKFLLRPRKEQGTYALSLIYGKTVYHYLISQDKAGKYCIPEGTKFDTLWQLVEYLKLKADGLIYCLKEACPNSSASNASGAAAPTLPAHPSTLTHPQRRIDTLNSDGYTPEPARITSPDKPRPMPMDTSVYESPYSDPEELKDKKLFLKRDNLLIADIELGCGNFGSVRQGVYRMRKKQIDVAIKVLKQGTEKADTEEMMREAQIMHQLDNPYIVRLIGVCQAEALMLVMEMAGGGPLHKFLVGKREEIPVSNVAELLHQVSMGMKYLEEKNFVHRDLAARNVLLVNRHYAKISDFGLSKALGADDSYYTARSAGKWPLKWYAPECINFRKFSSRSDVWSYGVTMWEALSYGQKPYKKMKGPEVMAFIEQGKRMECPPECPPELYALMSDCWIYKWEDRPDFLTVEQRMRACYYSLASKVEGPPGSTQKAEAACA
Summary of the method: as §2

[10] = biological target: T10, Kdr (Homo sapiens, UniProt P35968); assay: Kinase inhibition assay (33P transfer), Kdr; conditions: read-out: KDR-1
T10 construct: Kinases are expressed as either kinase domains or full length constructs; made in house
T10 sequence (P35968 20-1356, species assumed): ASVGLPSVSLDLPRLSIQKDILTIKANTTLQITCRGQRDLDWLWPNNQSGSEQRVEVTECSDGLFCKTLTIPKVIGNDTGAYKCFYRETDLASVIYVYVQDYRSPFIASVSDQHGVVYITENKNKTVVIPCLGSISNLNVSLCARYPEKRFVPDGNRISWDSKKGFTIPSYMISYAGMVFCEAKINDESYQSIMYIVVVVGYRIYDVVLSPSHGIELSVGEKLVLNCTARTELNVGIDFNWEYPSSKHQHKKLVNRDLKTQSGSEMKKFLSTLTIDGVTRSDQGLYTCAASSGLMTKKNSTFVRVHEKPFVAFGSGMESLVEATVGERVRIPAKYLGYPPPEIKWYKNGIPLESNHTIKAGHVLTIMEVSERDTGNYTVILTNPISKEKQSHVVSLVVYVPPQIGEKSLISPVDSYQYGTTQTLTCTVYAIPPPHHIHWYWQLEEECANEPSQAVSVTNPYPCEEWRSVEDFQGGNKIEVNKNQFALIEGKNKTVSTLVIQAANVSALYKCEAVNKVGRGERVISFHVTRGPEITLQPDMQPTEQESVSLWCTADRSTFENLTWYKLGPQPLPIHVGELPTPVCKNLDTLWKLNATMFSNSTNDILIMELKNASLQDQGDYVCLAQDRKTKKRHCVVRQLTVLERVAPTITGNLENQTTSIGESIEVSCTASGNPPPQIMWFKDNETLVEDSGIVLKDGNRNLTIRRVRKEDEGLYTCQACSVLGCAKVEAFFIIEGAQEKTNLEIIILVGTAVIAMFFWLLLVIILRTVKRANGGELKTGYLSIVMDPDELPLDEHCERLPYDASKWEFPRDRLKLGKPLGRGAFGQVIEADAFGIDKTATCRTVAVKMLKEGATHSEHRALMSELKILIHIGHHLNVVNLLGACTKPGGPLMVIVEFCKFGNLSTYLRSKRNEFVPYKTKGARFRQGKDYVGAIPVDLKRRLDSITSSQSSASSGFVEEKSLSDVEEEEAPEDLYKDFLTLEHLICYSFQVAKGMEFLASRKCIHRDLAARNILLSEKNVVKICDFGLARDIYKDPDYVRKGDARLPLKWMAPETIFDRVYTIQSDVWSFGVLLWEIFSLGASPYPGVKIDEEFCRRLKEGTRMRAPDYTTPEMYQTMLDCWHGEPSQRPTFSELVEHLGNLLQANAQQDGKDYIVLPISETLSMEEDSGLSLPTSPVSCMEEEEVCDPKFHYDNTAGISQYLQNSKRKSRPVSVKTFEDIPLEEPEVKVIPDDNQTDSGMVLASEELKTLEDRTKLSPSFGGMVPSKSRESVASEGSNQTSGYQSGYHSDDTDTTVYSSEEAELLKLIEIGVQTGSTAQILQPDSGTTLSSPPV
Summary of the method: as §2

IC50 [1] | IC50 [2] | IC50 [3] | IC50 [4] | IC50 [5] | IC50 [6] | IC50 [7] | IC50 [8] | IC50 [9] | IC50 [10] | SMILES
8.74 to 11.2 µM | > 11.2 µM | 0.999 to 6 µM | < 0.999 µM | < 0.999 µM | 0.999 to 6 µM | 8.74 to 11.2 µM | > 11.2 µM | > 11.2 µM | 0.999 to 6 µM | O=C(O)Cc1cccc(Nc2ncnc(Nc3cccc(Br)c3)n2)c1 [Compound 541]
1.09 to 6.57 µM | > 12.3 µM | 1.09 to 6.57 µM | 1.09 to 6.57 µM | 1.09 to 6.57 µM | 1.09 to 6.57 µM | 9.58 to 12.3 µM | 1.09 to 6.57 µM | > 12.3 µM | < 1.09 µM | COC(=O)Cc1cccc(Nc2ncnc(Nc3ccc(C)c(O)c3)n2)c1 [Compound 542]
> 12.8 µM | > 12.8 µM | > 12.8 µM | < 1.14 µM | 1.14 to 6.83 µM | 1.14 to 6.83 µM | > 12.8 µM | 6.83 to 9.96 µM | > 12.8 µM | < 1.14 µM | Cc1ccc(Nc2ncnc(Nc3cccc(CC(=O)O)c3)n2)cc1O [Compound 543]
> 12.5 µM | > 12.5 µM | < 1.11 µM | > 12.5 µM | > 12.5 µM | 1.11 to 6.64 µM | > 12.5 µM | > 12.5 µM | > 12.5 µM | < 1.11 µM | Nc1nc2ccccc2n1-c1ncnc(Nc2cccc(CC(=O)O)c2)n1 [Compound 544]
> 9.67 µM | > 9.67 µM | > 9.67 µM | 0.859 to 5.16 µM | 7.52 to 9.67 µM | < 0.859 µM | > 9.67 µM | 0.859 to 5.16 µM | > 9.67 µM | < 0.859 µM | COC(=O)Cc1cccc(Nc2ncnc(-n3c(NCc4ccccc4)nc4ccccc43)n2)c1 [Compound 545]
1.07 to 6.39 µM | 9.32 to 12 µM | < 1.07 µM | 6.39 to 9.32 µM | 6.39 to 9.32 µM | 1.07 to 6.39 µM | 6.39 to 9.32 µM | 1.07 to 6.39 µM | 9.32 to 12 µM | < 1.07 µM | COC(=O)Cc1cccc(Nc2ncnc(-n3c(N)nc4ccccc43)n2)c1 [Compound 546]
> 9.65 µM | > 9.65 µM | > 9.65 µM | > 9.65 µM | > 9.65 µM | > 9.65 µM | > 9.65 µM | > 9.65 µM | > 9.65 µM | < 0.857 µM | COC(=O)Cc1cccc(Nc2ncnc(-n3c(NCc4ccccn4)nc4ccccc43)n2)c1 [Compound 547]
> 9.08 µM | > 9.08 µM | > 9.08 µM | > 9.08 µM | > 9.08 µM | > 9.08 µM | > 9.08 µM | > 9.08 µM | > 9.08 µM | < 0.807 µM | COC(=O)Cc1cccc(Nc2ncnc(-n3c(NCc4ccc(OC)cc4)nc4ccccc43)n2)c1 [Compound 548]
> 9.17 µM | > 9.17 µM | > 9.17 µM | 4.89 to 7.13 µM | 0.815 to 4.89 µM | < 0.815 µM | > 9.17 µM | 0.815 to 4.89 µM | > 9.17 µM | < 0.815 µM | COc1cc(Nc2ncnc(-n3c(NCc4nccs4)nc4ccccc43)n2)cc(OC)c1OC [Compound 549]
> 10.6 µM | > 10.6 µM | > 10.6 µM | > 10.6 µM | > 10.6 µM | > 10.6 µM | 8.22 to 10.6 µM | > 10.6 µM | > 10.6 µM | > 10.6 µM | CN1CCN(Cc2cccc(Nc3ncnc(Nc4cccc5ccccc45)n3)c2)CC1 [Compound 551]
> 8.9 µM | > 8.9 µM | > 8.9 µM | > 8.9 µM | > 8.9 µM | > 8.9 µM | > 8.9 µM | > 8.9 µM | > 8.9 µM | > 8.9 µM | CN1CCN(Cc2cccc(Nc3ncnc(Nc4ccc5c(cnn5Cc5ccccc5)c4)n3)c2)CC1 [Compound 552]
8.59 to 11 µM | 5.89 to 8.59 µM | 8.59 to 11 µM | < 0.982 µM | 0.982 to 5.89 µM | 0.982 to 5.89 µM | 0.982 to 5.89 µM | > 11 µM | 5.89 to 8.59 µM | 0.982 to 5.89 µM | Cc1cccc(Nc2ncnc(Nc3ccc4c(cnn4Cc4ccccc4)c3)n2)c1 [Compound 553]
> 9.53 µM | 7.41 to 9.53 µM | > 9.53 µM | < 0.847 µM | 5.08 to 7.41 µM | 7.41 to 9.53 µM | 5.08 to 7.41 µM | 5.08 to 7.41 µM | 7.41 to 9.53 µM | 0.847 to 5.08 µM | Brc1cccc(Nc2ncnc(Nc3ccc4c(cnn4Cc4ccccc4)c3)n2)c1 [Compound 554]
7.24 to 9.31 µM | 4.96 to 7.24 µM | < 0.827 µM | < 0.827 µM | 0.827 to 4.96 µM | 0.827 to 4.96 µM | 4.96 to 7.24 µM | < 0.827 µM | 7.24 to 9.31 µM | 0.827 to 4.96 µM | COc1cc(Nc2ncnc(Nc3ccc4nn(Cc5ccccc5)cc4c3)n2)cc(OC)c1OC [Compound 555]
0.982 to 5.89 µM | > 11 µM | < 0.982 µM | 0.982 to 5.89 µM | < 0.982 µM | < 0.982 µM | > 11 µM | < 0.982 µM | > 11 µM | 0.982 to 5.89 µM | COc1cc(Nc2ncnc(Nc3ccc4nn(C)cc4c3)n2)cc(OC)c1OC [Compound 556]
8.59 to 11 µM | > 11 µM | < 0.982 µM | 0.982 to 5.89 µM | < 0.982 µM | < 0.982 µM | > 11 µM | < 0.982 µM | > 11 µM | 0.982 to 5.89 µM | COc1cc(Nc2ncnc(Nc3ccc4c(cnn4C)c3)n2)cc(OC)c1OC [Compound 557]
> 8.76 µM | > 8.76 µM | > 8.76 µM | > 8.76 µM | 6.82 to 8.76 µM | 0.779 to 4.67 µM | 4.67 to 6.82 µM | 4.67 to 6.82 µM | 4.67 to 6.82 µM | < 0.779 µM | COc1ccc(Nc2nc3ccccc3n2-c2ncnc(Nc3cc(OC)c(OC)c(OC)c3)n2)c(C)c1 [Compound 558]
